Literature values in patent US6306900A, “Enteric coated pharmaceutical compositions” (priority 1996, dated 2001).

Key:
[1] = W. A. Lee et al
[2] = in words
[3] = patients; origin not known

SMILES	bioavailability [1] [%]	known activity [2]	side-effects [3]
COc1c(C)c2c(c(O)c1C/C=C(\C)CCC(=O)O)C(=O)OC2 [MPA, Mycophenolic acid]	43	anti-tumor, anti-viral, immunosuppressive, anti-psoriatic, and anti-inflammatory activity	–
COc1c(C)c2c(c(O)c1C/C=C(\C)CCC(=O)OCCN1CCOCC1)C(=O)OC2 [MMF, mycophenolate mofetil]	100	–	gastro-intestinal side effects
